Starred links: 1 amine or outer side, 2 acyl side, 3 side chain; linkers in the order of their positions; H or OH if unused. Positions of bridges follow the written chain, without caps; N, C: chain ends. Residues, ends and D or L forms follow the SMILES beside them. X1 = O=C(C[*:2])NCCNC(=O)c1ccc(C2=N[C@H](C(=O)[*:1])CS2)cc1
Assays:
BCL-2-G101V = molecular target: T1, BCL-2-G101V (Homo sapiens, UniProt P10415, DEL35-91/G101V/INS34DVEENRTEAPEGTESE); assay: SPR binding assay, BCL-2 G101V mutant; conditions: affinity fitting, mean ± SD of three independent experiments
T1 construct: A chimeric human BCL-2 (including residues 1–50 and 92–207) was constructed; SUMO (pET28a-Sumo vector); made in house; host or cells: E. coli BL21 (DE3)
Excerpt: (§1) The DNA fragments encoding human BCL-XL ([…], with […] removed), BCL-w (residues 6–152), MCL-1 (residues 152–308) and BFL-1 (residues 1–151) as previously reported[18] were cloned into a pET-22b vector (Invitrogen), respectively. A chimeric human BCL-2 (including residues 1–50 and 92–207) was constructed, by removing the internal long loop (residues 51–91) and replacing its residues 35–50 with residues 33–48 of BCL-XL to solubilize the protein[14], and then it was cloned into a pET28a-Sumo vector (Invitrogen). All BCL-2 mutants (G101V, F104L, Y103D, D111A) were generated by mutagenic PCR, according to the QuikChange (Stratagene) protocol.
(§2) SPR assays were performed using a Biacore T200 instrument in running buffer consisting 10 mM PBS, 50 μM EDTA and 0.05% Tween-20 at 25 °C. Biotinylated proteins were immobilized on a CAP sensor chip (Cytiva, 28920234). […] The binding affinities were quantified by the Biacore evaluation software using 1:1 binding model. The reproducibility of the assays was confirmed by performing replicate determinations.

BCL-2-D103Y = molecular target: T2, BCL-2-D103Y (Homo sapiens, UniProt P10415, D103Y/DEL35-91/INS34DVEENRTEAPEGTESE); assay: SPR binding assay, BCL-2 D103Y mutant; conditions: affinity fitting, mean ± SD of three independent experiments
T2 construct: A chimeric human BCL-2 (including residues 1–50 and 92–207) was constructed; SUMO (pET28a-Sumo vector); made in house; host or cells: E. coli BL21 (DE3)
Excerpt: as §1, §2

BFL-1 = molecular target: T3, BFL-1 (Homo sapiens, UniProt Q16548); assay: SPR binding assay, BFL-1; conditions: NB = no binding
T3 construct: BFL-1 (residues 1–151); vector-borne tag of pET-22b (Ni-NTA purification implies a His tag); made in house; host or cells: E. coli BL21 (DE3)
T3 sequence (Q16548 1-151): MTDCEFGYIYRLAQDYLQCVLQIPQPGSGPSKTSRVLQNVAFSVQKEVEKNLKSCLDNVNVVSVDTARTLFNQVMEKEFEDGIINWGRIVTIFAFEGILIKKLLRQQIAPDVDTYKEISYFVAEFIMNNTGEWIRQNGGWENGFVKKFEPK
Excerpt: as §1, §2

BCL-2-F104L = molecular target: T4, BCL-2-F104L (Homo sapiens, UniProt P10415, DEL35-91/F104L/INS34DVEENRTEAPEGTESE); assay: SPR binding assay, BCL-2 F104L mutant; conditions: affinity fitting, mean ± SD of three independent experiments
T4 construct: A chimeric human BCL-2 (including residues 1–50 and 92–207) was constructed; SUMO (pET28a-Sumo vector); made in house; host or cells: E. coli BL21 (DE3)
Excerpt: as §1, §2

BCL-XL = molecular target: T5, BCL-XL (Homo sapiens, UniProt Q07817, DEL27-81); assay: SPR binding assay, BCL-XL; conditions: affinity fitting, mean ± SD of three independent experiments, 25 °C
T5 construct: human BCL-XL (residues 1–210, with 27–81 and 210–233 removed); vector-borne tag of pET-22b (Ni-NTA purification implies a His tag); made in house; host or cells: E. coli BL21 (DE3)
Excerpt: as §1, §2

BCL-2-D111A = molecular target: T6, BCL-2-D111A (Homo sapiens, UniProt P10415, D111A/DEL35-91/INS34DVEENRTEAPEGTESE); assay: SPR binding assay, BCL-2 D111A mutant
T6 construct: A chimeric human BCL-2 (including residues 1–50 and 92–207) was constructed; SUMO (pET28a-Sumo vector); made in house; host or cells: E. coli BL21 (DE3)

BCL-w = molecular target: T7, BCL-w (Homo sapiens, UniProt Q92843); assay: SPR binding assay, BCL-w; conditions: affinity fitting, mean ± SD of three independent experiments
T7 construct: BCL-w (residues 6–152); vector-borne tag of pET-22b (Ni-NTA purification implies a His tag); made in house; host or cells: E. coli BL21 (DE3)
Excerpt: as §1, §2

MCL-1 = MCL-1 (Homo sapiens, UniProt Q07820); assay: SPR binding assay, MCL-1; conditions: NB = no binding
Excerpt: as §1, §2

T7 sequence (Q92843 6-152): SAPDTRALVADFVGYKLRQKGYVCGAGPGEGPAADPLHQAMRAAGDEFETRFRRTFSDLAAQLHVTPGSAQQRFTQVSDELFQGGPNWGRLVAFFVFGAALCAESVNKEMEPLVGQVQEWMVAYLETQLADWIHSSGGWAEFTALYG
Chain of MCL-1 (Q07820 152-308): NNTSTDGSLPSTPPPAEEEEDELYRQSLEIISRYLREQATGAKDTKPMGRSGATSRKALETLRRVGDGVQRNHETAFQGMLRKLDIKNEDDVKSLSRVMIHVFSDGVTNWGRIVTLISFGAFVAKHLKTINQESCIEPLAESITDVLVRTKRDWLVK

C[C@@H]1NC(=O)[C@@H]2CCCN2C(=O)[C@@H]2CSC(=N2)c2ccc(cc2)C(=O)NCCNC(=O)CSC[C@@H](C(N)=O)NC(=O)[C@H](CCC(=O)O)NC(=O)[C@H](Cc2ccc(O)cc2)NC(=O)[C@H](CC(=O)O)NC(=O)[C@H](Cc2c[nH]c3ccccc23)NC(=O)CNC(=O)[C@H](Cc2ccc(O)cc2)NC(=O)[C@H](CCCNC(=N)N)NC1=O [cp1] (PARYGWDYEC-NH2; linker N-10 via X1)
Kd (BCL-2-G101V): 1000 ± 130 nM | Kd (BCL-2-D103Y): 360 ± 30 nM | Kd (BFL-1): > 12800 nM | Kd (BCL-2-F104L): 1620 ± 360 nM | Kd (BCL-XL): > 12100 nM | Kd (BCL-2-D111A): 5340 ± 1000 nM | Kd (BCL-w): 1980 ± 390 nM | Kd (MCL-1): > 12800 nM
